Assay results: patent US20080070859A1, “Compounds resistant to metabolic deactivation and methods of use” (priority 2002, published 2008)
pIC50: −log10 of the molar value.

How the values were obtained:
CEM/Cl = experiment: MTT assay of cell viability, CEM/Cl; type: cell-based; settings: 5 days at 37 C
Description: (§1) The in vitro cytotoxicities of thioaminal prodrugs of Cordycepin were compared to the parent drug Cordycepin using a standard MTT assay of cell viability (Hansen et al. (1989) J. Immunol. Meth. 119:203-10). Leukemia cell lines growing in the exponential phase (MOLT, […], and CEM/Cl) were plated at a final concentration of 1×10^5 cells/ml and exposed to serial dilutions of the Cordycepin prodrugs. In a subset of the experiments (denoted by “+”), the cells were preincubated with 1 μM of the ADA inhibitor 2′-deoxycoformycin for 30 minutes prior to addition of prodrug. Cell viability was determined after incubation for 5 days at 37 C by addition of 3-(4,5-dimethylthizaol-2-yl)-2,5-diplenyl-tetrazolium dye. IC50 was defined as the drug concentration that reduced cell viability 50% in comparison with the appropriate control.

[1] = HPLC stability analysis: hydrolysis of the prodrug to Cordycepin in phosphate buffer; type: physicochemical; settings: 0.63 mM in 30 mM phosphate buffer (pH 7.3) containing 5% DMSO, 37 C; for half-life at 0.63 mM: read-out: t½ (time point at which half of the Cordycepin prodrug was hydrolysed to Cordycepin) (converted)
Description: To analyze the half-life of thioaminal prodrugs, HPLC stability analysis was performed on the following Cordycepin prodrugs. Solutions (0.63 mM) of each of the following compounds was prepared in 30 mM phosphate buffer (pH 7.3) containing 5% DMSO and incubated at 37 C.

HL-60 = experiment: MTT assay of cell viability, HL-60; type: cell-based; settings: 5 days at 37 C
Description: as §1

MOLT = experiment: MTT assay of cell viability, MOLT; type: cell-based; settings: 5 days at 37 C
Description: as §1

[2] = tested on: Leukemia cell lines (MOLT, HL-69, and CEM/Cl); experiment: MTT assay of cell viability, overall comparison with Cordycepin; type: cell-based; settings: both in the presence and absence of ADA inhibitor
Description: as §1

[3] = tested on: Leukemia cell lines (MOLT, and CEM/Cl); experiment: as above; type: cell-based; settings: absence vs presence of ADA inhibitor 2′-deoxycoformycin
Description: as §1

[4] = + (preincubated with 1 μM 2′-deoxycoformycin for 30 minutes)
[5] = HL-60, + (preincubated with 1 μM 2′-deoxycoformycin for 30 minutes)
[6] = Homo sapiens, 120 h, HL-60, − (no ADA inhibitor)

Compound | pIC50 (HL-60; [5]) | pIC50 (HL-60; [6]) | half-life at 0.63 mM [1] [h] | pIC50 (MOLT; 120 h, − (no ADA inhibitor)) | pIC50 (MOLT; [4]) | pIC50 (CEM/Cl; [4]) | pIC50 (CEM/Cl; − (no ADA inhibitor)) | t½ (time point at which half of the Cordycepin prodrug was hydrolysed to Cordycepin) [1] [h] | pIC50 (CEM/Cl; 120 h, − (no ADA inhibitor)) | cytotoxic potency compared to Cordycepin [2] | attenuation of activity in the absence of ADA inhibitor [3]
6-N-(4-N-acetylbenzylthio)methyl-Cordycepin [8b] |  |  |  |  |  | 5.52 | 4.82 |  |  |  | 
CCSCNc1ncnc2c1ncn2[C@@H]1O[C@H](CO)C[C@H]1O [1b, 6-N-(Ethanethio)methyl-Cordycepin] |  |  |  |  |  |  |  | >72 |  |  | 
OCCSCNc1ncnc2c1ncn2[C@@H]1O[C@H](CO)C[C@H]1O [2b, 6-N-(2-hydroxyethanethio)methyl-Cordycepin] |  |  |  |  |  |  |  | >72 |  |  | 
O=[N+]([O-])c1ccc(CSCNc2ncnc3c2ncn3[C@@H]2O[C@H](CO)C[C@H]2O)cc1 [7b, 6-N-(4-nitrobenzylthio)methyl-Cordycepin] |  |  |  |  |  |  |  | 1 |  |  | 

Continued, in another order:

pIC50 (HL-60; [5]) | pIC50 (HL-60; [6]) | half-life at 0.63 mM [1] [h] | pIC50 (MOLT; 120 h, − (no ADA inhibitor)) | pIC50 (MOLT; [4]) | Compound | pIC50 (CEM/Cl; [4]) | pIC50 (CEM/Cl; − (no ADA inhibitor)) | t½ (time point at which half of the Cordycepin prodrug was hydrolysed to Cordycepin) [1] [h] | pIC50 (CEM/Cl; 120 h, − (no ADA inhibitor)) | cytotoxic potency compared to Cordycepin [2] | attenuation of activity in the absence of ADA inhibitor [3]
5.15 | 4.62 | 15 | 4.74 | 4.80 | OC[C@@H]1C[C@@H](O)[C@H](n2cnc3c(NCSc4ccccc4)ncnc32)O1 [3b, 6-N-(phenylthiol)methyl-Cordycepin] | 5.70 |  |  | 5.26 | more potent cytotoxic agents than Cordycepin | not significantly attenuated
4.77 | 4.30 |  | 4.46 | 4.52 | Cc1ccc(SCNc2ncnc3c2ncn3[C@@H]2O[C@H](CO)C[C@H]2O)cc1 [4b] | 5.30 |  |  | 4.62 | more potent cytotoxic agents than Cordycepin | 
 |  | 17 |  |  | COc1ccc(SCNc2ncnc3c2ncn3[C@@H]2O[C@H](CO)C[C@H]2O)cc1 [5b, 6-N-(4-methoxybenzothio)methyl-Cordycepin] | 5.52 |  |  | 4.82 | more potent cytotoxic agents than Cordycepin | 
5.05 | 4.38 |  | 4.10 | 4.68 | Nc1ncnc2c1ncn2[C@@H]1O[C@H](CO)C[C@H]1O [Cordycepin, 3′-deoxyadenosine, reference compound] | 5.70 |  |  | 4.57 |  | 
